Patent publication US8288375B2, “Fungicidal bicyclic pyrazoles” (E.I. du Pont de Nemours and Company, priority 2007, dated 2012)

How the values were obtained:
[1] = system: Erysiphe graminis f. sp. tritici; assay: Test A: wheat powdery mildew, test suspension sprayed on wheat seedlings, disease rating; format: in vivo; conditions: 200 ppm test suspension, 100 = 100% disease control, 0 = no control; for pest or weed control at 200 ppm: Blumeria graminis, 192 h
[2] = system: Puccinia recondite f sp. tritici; assay: Test B: wheat leaf rust, test suspension sprayed on wheat seedlings, disease rating; format: in vivo; conditions: 200 ppm test suspension; for pest or weed control at 200 ppm: Puccinia, 192 h;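 as to all read-outs here: 200 ppm unless marked * meaning 40 ppm or ** meaning 10 ppm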
[3] = system: Fusarium graminearum; assay: whole plant or invertebrate; format: in vivo; conditions: for pest or weed control at 200 ppm: Fusarium graminearum, in Triticum aestivum, 192 h, read-out: Test C disease control rating; for Test C disease control rating: 200 ppm test suspension
[4] = system: Septoria nodorum; assay: Test D: wheat glume blotch, test suspension sprayed on wheat seedlings, disease rating; format: in vivo; conditions: 200 ppm test suspension; for pest or weed control at 200 ppm: Parastagonospora nodorum, 216 h
[5] = system: Septoria tritici; assay: Test E: wheat leaf blotch, test suspension sprayed on wheat seedlings, disease rating; format: in vivo; conditions: 200 ppm test suspension; for pest or weed control at 200 ppm: Zymoseptoria tritici, 504 h;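 as to all read-outs here: 200 ppm unless marked * meaning 40 ppm or ** meaning 10 ppm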
[6] = system: Phytophthora infestans; assay: whole plant or invertebrate; format: in vivo; conditions: for pest or weed control at 200 ppm: Phytophthora infestans, in Solanum lycopersicum, 120 h, read-out: Test J disease control rating; for Test J disease control rating: 200 ppm test suspension
[7] = system: Pythium aphanidermatum; assay: Test L: bluegrass pythium blight, test suspension sprayed on bluegrass seedlings, disease rating; format: in vivo; conditions: 200 ppm test suspension; for pest or weed control at 200 ppm: Pythium aphanidermatum, 120 h;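 as to all read-outs here: 200 ppm unless marked * meaning 40 ppm or ** meaning 10 ppm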
[8] = system: Colletotrichum orbiculare; assay: Test F: cucumber Colletotrichum anthracnose, test suspension sprayed on cucumber seedlings, disease rating; format: in vivo; conditions: 200 ppm test suspension
[9] = system: Botrytis cinerea; assay: Test H: tomato Botrytis, test suspension sprayed on tomato seedlings, disease rating; format: in vivo; conditions: 200 ppm test suspension
[10] = system: Rhizoctonia oryzae; assay: Test I: turf brown patch, test suspension sprayed on creeping bent grass seedlings, disease rating; format: in vivo; conditions: 200 ppm test suspension
[11] = system: Plasmopara viticola; assay: Test K: grape downy mildew, grape seedlings inoculated and then sprayed, disease rating; format: in vivo; conditions: 200 ppm test suspension

| Compound | pest or weed control at 200 ppm [1] [%] | pest or weed control at 200 ppm [2] [%] | pest or weed control at 200 ppm [3] [%] | pest or weed control at 200 ppm [4] [%] | pest or weed control at 200 ppm [5] [%] | pest or weed control at 200 ppm [6] [%] | pest or weed control at 200 ppm [7] [%] | melting point [°C] | Test A disease control rating [1] [%] | Test B disease control rating [2] [%] | Test C disease control rating [3] [%] | Test D disease control rating [4] [%] | Test E disease control rating [5] [%] | Test F disease control rating [8] [%] | Test H disease control rating [9] [%] | Test I disease control rating [10] [%] | Test J disease control rating [6] [%] | Test K disease control rating [11] [%] | Test L disease control rating [7] [%] |
| --- | --- | --- | --- | --- | --- | --- | --- | --- | --- | --- | --- | --- | --- | --- | --- | --- | --- | --- | --- |
| CC(CO)Nc1nccc(-c2c(-c3ccc(F)cc3)nn3c2COCC3)n1 (stereo not drawn) [Compound 108, 2-[[4-[2-(4-fluorophenyl)-6,7-dihydro-4H-pyrazolo[5,1-c][1,4]oxazin-3-yl]-2-pyrimidinyl]amino]-1-propanol] | 43 | 99 | 98 | 87 | 99 | 77 | 100 | 124 to 126 | – | – | – | – | – | – | – | – | – | – | – |
| Fc1ccc(-c2nn3c(c2-c2ccnc(NCC4CC4)n2)CCCC3)cc1 [Compound 24, N-(cyclopropylmethyl)-4-[2-(4-fluorophenyl)-4,5,6,7-tetrahydropyrazolo[1,5-a]pyridin-3-yl]-2-pyrimidinamine] | 97 | – | – | 98 | 98 | 72 | 0 | 124 to 125 | – | – | – | – | – | – | – | – | – | – | – |
| CCCC(C)Nc1nccc(-c2c(-c3ccc(F)cc3)nn3c2CCCC3)n1 (stereo not drawn) [compound 4] | – | – | – | – | – | – | – | – | 0 | 92 | 100 | 60 | 90 | 8 | 55 | 0 | 0 | 21 | 0 |
| CC(C)Nc1nccc(-c2c(-c3ccccc3)nn3c2COCC3)n1 [Compound 116, 4-(6,7-dihydro-2-phenyl-4H-pyrazolo[5,1-c][1,4]oxazin-3-yl)-N-(1-methylethyl)-2-pyrimidinamine] | 90 | 93 | 100 | 92 | 91 | 95 | 100 | 185 to 187 | – | – | – | – | – | – | – | – | – | – | – |
| Fc1ccc(-c2nn3c(c2-c2ccnc(NC4CCC4)n2)CCCC3)cc1 [Compound 51, N-cyclobutyl-4-[2-(4-fluorophenyl)-4,5,6,7-tetrahydropyrazolo[1,5-a]pyridin-3-yl]-2-pyrimidinamine] | 81 | 98 | 100 | 100 | 100 | 93 | 100 | 155 to 157 | – | – | – | – | – | – | – | – | – | – | – |
| Fc1ccc(-c2nn3c(c2-c2ccnc(NC4CCCC4)n2)CCCC3)cc1 [compound 7] | – | – | – | – | – | – | – | – | 82 | 99 | 100 | 98 | 99 | 90 | 82 | 0 | 93 | 0 | 0 |
| CCC(C)c1ccc(Nc2nccc(-c3c(-c4ccc(F)cc4)nn4c3CCCC4)n2)cc1 (stereo not drawn) [compound 9] | – | – | – | – | – | – | – | – | 52 | 97 | 99 | 92 | 0 | 79 | 81 | 0 | 0 | 0 | 0 |
| c1ccc(-c2nn3c(c2-c2ccnc(NC4CC4)n2)COCC3)cc1 [Compound 117, N-cyclopropyl-4-(6,7-dihydro-2-phenyl-4H-pyrazolo[5,1-c][1,4]oxazin-3-yl)-2-pyrimidinamine] | 86 | 97 | 99 | 98 | 98 | 95 | 100 | 186 to 189 | – | – | – | – | – | – | – | – | – | – | – |
| CCCNc1nccc(-c2c(-c3ccc(F)cc3)nn3c2CCCC3)n1 [compound 11] | – | – | – | – | – | – | – | – | 93 | 99 | 100 | 99 | 98 | 83 | 97 | 44 | 100 | 0 | 100 |
| CNc1nccc(-c2c(-c3ccc(F)cc3)nn3c2CCCC3)n1 [compound 13] | – | – | – | – | – | – | – | – | 98 | 99 | 100 | 97 | – | 31 | 29 | 77 | 97 | 0 | 100 |
| CC(C)(C)CNc1nccc(-c2c(-c3ccc(F)cc3)nn3c2CCCC3)n1 [compound 3] | – | – | – | – | – | – | – | – | 47 | 91 | 99 | 0 | 72 | 0 | 0 | 0 | 0 | 0 | 0 |
| Fc1ccc(-c2nn3c(c2-c2ccnc(Cl)n2)CCCN3)cc1 | – | – | – | – | – | – | – | 206 to 207 | – | – | – | – | – | – | – | – | – | – | – |
| CCC(C)CNc1nccc(-c2c(-c3ccc(F)cc3)nn3c2CCCC3)n1 (stereo not drawn) [compound 6] | – | – | – | – | – | – | – | – | 0 | 73 | 100 | 0 | – | 0 | 0 | 0 | 0 | 0 | 0 |
| CN(C)c1nccc(-c2c(-c3ccc(F)cc3)nn3c2CCCC3)n1 [compound 14] | – | – | – | – | – | – | – | – | 95 | 91 | 100 | 73 | 99 | 0 | 0 | 0 | 60 | 0 | 0 |
| C#CCNc1nccc(-c2c(-c3ccc(F)cc3)nn3c2CCCC3)n1 [compound 17] | – | – | – | – | – | – | – | – | 64 | 99 | 100 | 98 | – | 77 | 97 | 0 | 100 | 86 | 100 |
